Converted amounts (≈) assume the structure as drawn. Read-outs that look alike come from different tables or passages of the source. Marks after values point to notes of the source that are not given here. Where a SMILES comes first, the peptide text is derived from it. Bridges are numbered along the chain shown (N, C = ends). Roman numbers before positions name the chains, in order. Side-chain parts run from the residue outwards. The star is where a group is joined. Myristoyl = CCCCCCCCCCCCCC(=O)*; Lauroyl = CCCCCCCCCCCC(=O)*; Decanoyl = CCCCCCCCCC(=O)*; Octanoyl = CCCCCCCC(=O)*

One data set deals with S. aureus ATCC 33591. It counts as cell-based, Staphylococcus aureus. The method, then: (§1) Minimal inhibitory concentrations of lipopeptides were determined in the presence of human serum to evaluate the effect of enzymatic degradation and protein binding of lipopeptides on antimicrobial activity. Serum concentrations were 1% and 10% (v/v). S. aureus (ATCC 33591), P. aeruginosa (ATCC 9027), and C. glabrata (ATCC 15126) were selected to this study.
(§2) The MICs were determined by the broth microdilution method according to the Clinical and Laboratory Standard Institute guidelines. For this purpose, initial inoculums of bacteria (5 × 10^5 CFU/mL) in MHB and yeasts (2 × 10^3 CFU/mL) in RPMI-1640 with 2% D-glucose were exposed to the ranging concentration of lipopeptides (0.5–256 μg/mL) and incubated at 37 °C for 18 h and 24 h, respectively. The experiments were conducted on 96-well microtiter polystyrene plates (Kartell, Noviglio, Italy). The growth was assessed visually after incubation, and the MIC was assumed as the lowest peptide concentration at which a noticeable growth of microorganisms was inhibited. All experiments were conducted in triplicate.
(§3) The MICs were determined in the presence of normal human serum (NHS; Sigma-Aldrich, Human Serum, Normal) in concentrations of 1 and 10% (v/v). NHS was stored frozen at −20 °C and thawed just before use. Microorganisms were cultivated as described in 3.4.1. Serial dilutions of compounds, inoculum density, medium, and incubation conditions were prepared as described in Section 3.4.2. Stock solutions of test compounds were prepared in appropriate culture medium.

Another data set has as its system P. aeruginosa ATCC 9027. It counts as cell-based, Pseudomonas aeruginosa. The method, then: as §1, §2, §3
A further data set concerns C. glabrata ATCC 15126. It counts as cell-based, Candida glabrata. Here is the method: as §1, §2, §3
Data set [1] has as its system E. coli ML-35 (ATCC 43827).
Text: (§4) The permeabilization of E. coli ML-35 (ATCC 43827) membranes was studied for selected compounds (A4, B2, C2, B7, and C7) to compare their activity and membrane disruption over time. […] For OM and IM permeabilization, CENTA and ONPG were used, respectively. The permeabilization of OM causes the release of periplasmic β-lactamase, which hydrolyzes CENTA’s β-lactam ring to form a chromophore, 2-nitro-5-thiobenzoate (TNB) anion, while the disruption of IM results in the release of β-galactosidase, which hydrolyzes ONPG into galactose and a chromophore, ortho-nitrophenol (ONP). Both products of enzymatic reaction absorb light at 405 nm.
as §2
Inner and outer membranes permeabilization kinetics were evaluated using Escherichia coli ML-35 (ATCC 43827) and chromogenic substrates—CENTA (BioVision, Milpitas, CA, USA) and o-nitrophenyl-β-d-galactopyranoside (ONPG) (Sigma-Aldrich, Steinheim, Germany), as described previously. To examine OM permeabilization, CENTA was used as a β-lactamase substrate. In effect of OM permeabilization, the enzyme can hydrolyze CENTA’s β-lactam ring. The resulting color change (2-nitro-5-thiobenzoate anion, TNB^-) could be measured spectrophotometrically at 405 nm. The IM permeabilization was monitored with ONPG, which is a chromogenic β-galactosidase substrate. The product of this reaction ([…]) was measured spectrophotometrically at 405 nm (Multiskan GO Microplate Spectrophotometer, Thermo Fisher Scientific, Vantaa, Finland). […] Bacteria were incubated in lysogeny broth medium (LB; Biocorp, Warszawa, Poland) for 24 h at 37 °C. Subsequently, the cells were diluted in a fresh LB medium and incubated at 37 °C up to a mid-log phase (ca. 3 h). The culture was centrifuged (3 min, 1100× g) and rinsed twice with a PBS. The bacteria were resuspended in PBS up to a concentration of 5 × 10^6 CFU/mL. The final concentration of ONPG and CENTA was 1.5 mM and 0.15 mM, respectively. The ONPG/CENTA in PBS (Sigma-Aldrich, Steinheim, Germany) was used as a negative control. […] Readings were taken every 15 min for 3 h at 37 °C [125, 142, 143, 144]. Experiments were performed in triplicate on 96-well flat bottom microtiter polystyrene plates.

In data set [2] the test system is human red blood cells (hRBCs). Particulars: cited from earlier work.
For data set [3], the system named is E. coli ML-35 (ATCC 43827). Description: Inner membrane (IM) permeabilization kinetics, ONPG. Type of data set: cell-based, Escherichia coli. To be noted: for ti (t2), incubation time at the intersection of two tangents, IM permeabilization: 32 µg/mL; for ti (t1), incubation time at the intersection of two tangents, IM permeabilization: 64 µg/mL.
Text: as §4
Inner and outer membranes permeabilization kinetics were evaluated using Escherichia coli ML-35 (ATCC 43827) and chromogenic substrates—CENTA (BioVision, Milpitas, CA, USA) and o-nitrophenyl-β-d-galactopyranoside (ONPG) (Sigma-Aldrich, Steinheim, Germany), as described previously. To examine OM permeabilization, CENTA was used as a β-lactamase substrate. In effect of OM permeabilization, the enzyme can hydrolyze CENTA’s β-lactam ring.

For the molecule `CCCCCCC(CCCC)C(=O)N[C@@H](CCCNC(=N)N)C(=O)N[C@@H](CCCNC(=N)N)C(=O)NCCCC[C@H](NC(=O)[C@H](CCCNC(=N)N)NC(=O)[C@H](CCCNC(=N)N)NC(=O)C(CCCC)CCCCCC)C(N)=O` (some centres unmarked) [Compound B7], in the data set on S. aureus ATCC 33591 (human serum 10% (v/v)), the “MIC S. aureus ATCC 33591” value came to 8 µg/mL (≈ 7.05 µM). Moreover, in the data set with P. aeruginosa ATCC 9027 (human serum 10% (v/v)), the “MIC P. aeruginosa ATCC 9027” value was 128 µg/mL (≈ 113 µM). In the data set with C. glabrata ATCC 15126 (human serum 10% (v/v)), the “MIC C. glabrata ATCC 15126” value was 64 µg/mL (≈ 56.4 µM). Also, in data set [1], the “MIC E. coli ML-35 (ATCC 43827)” value is reported as 32 µg/mL (≈ 28.2 µM).

For `CCCCCCCCCCCC(=O)N[C@@H](CCCNC(=N)N)C(=O)N[C@@H](CCCNC(=N)N)C(=O)N[C@@H](CSSC[C@H](NC(=O)[C@H](CCCNC(=N)N)NC(=O)[C@H](CCCNC(=N)N)NC(=O)CCCCCCCCCCC)C(N)=O)C(N)=O` [Compound C3] (I: Lauroyl-Arg-Arg-Cys-NH2 / II: Lauroyl-Arg-Arg-Cys-NH2; disulfide I:3-II:3), the “MIC S. aureus ATCC 33591” value in the data set on S. aureus ATCC 33591 (human serum 10% (v/v)) is given as 32 µg/mL (≈ 26.1 µM). In addition, in the data set with P. aeruginosa ATCC 9027 (human serum 10% (v/v)), the “MIC P. aeruginosa ATCC 9027” value is on record as 256 µg/mL (≈ 209 µM). In addition, the “MIC C. glabrata ATCC 15126” value in the data set on C. glabrata ATCC 15126 (human serum 10% (v/v)) is reported as above 256 µg/mL.

As for `CCCCCCCC(=O)N[C@@H](CCCNC(=N)N)C(=O)N[C@@H](CCCNC(=N)N)C(N)=O` [Compound A1, C8-RR-NH2] (Octanoyl-Arg-Arg-NH2), in data set [2], the HC50 is >256 * µg/mL.

In the case of `CCCCCCCCCCCCCC(=O)N[C@@H](CCCNC(=N)N)C(=O)N[C@@H](CCCNC(=N)N)C(N)=O` [Compound A4, C14-RR-NH2] (Myristoyl-Arg-Arg-NH2), in the data set on S. aureus ATCC 33591 (human serum 10% (v/v)), the “MIC S. aureus ATCC 33591” value came to 64 µg/mL (≈ 119 µM). The “MIC P. aeruginosa ATCC 9027” value in the data set with P. aeruginosa ATCC 9027 (human serum 10% (v/v)) turned out to be 256 µg/mL (≈ 474 µM). Also, the “MIC C. glabrata ATCC 15126” value against C. glabrata ATCC 15126 (human serum 10% (v/v)) amounted to 256 µg/mL (≈ 474 µM). For the same molecule, the “MIC E. coli ML-35 (ATCC 43827)” value in data set [1] is 32 µg/mL (≈ 59.3 µM). Also, in data set [3], the “ti (t2), incubation time at the intersection of two tangents, IM permeabilization” value (“ti (t2), incubation time” below) came out at 77.6 min and the “ti (t1), incubation time at the intersection of two tangents, IM permeabilization” value (from here on “ti (t1), incubation time”) is 39.0 min.

As to `CCCCCCCCCC(=O)N[C@@H](CCCNC(=N)N)C(=O)N[C@@H](CCCNC(=N)N)C(=O)N[C@@H](CSSC[C@H](NC(=O)[C@H](CCCNC(=N)N)NC(=O)[C@H](CCCNC(=N)N)NC(=O)CCCCCCCCC)C(N)=O)C(N)=O` [Compound C2] (I: Decanoyl-Arg-Arg-Cys-NH2 / II: Decanoyl-Arg-Arg-Cys-NH2; disulfide I:3-II:3), the “MIC E. coli ML-35 (ATCC 43827)” value in data set [1] came out at 32 µg/mL (≈ 27.3 µM). Moreover, in data set [3], the “ti (t2), incubation time” value is recorded as 45.7 min and the “ti (t1), incubation time” value was 42.0 min.

As to `CCCCCCCCCCCC(=O)N[C@@H](CCCNC(=N)N)C(=O)N[C@@H](CCCNC(=N)N)C(N)=O` [Compound A3, C12-RR-NH2] (Lauroyl-Arg-Arg-NH2), the HC50 in data set [2] was >256 * µg/mL.

For `CCCCCCCCCC(=O)N[C@@H](CCCNC(=N)N)C(=O)N[C@@H](CCCNC(=N)N)C(N)=O` [Compound A2, C10-RR-NH2] (Decanoyl-Arg-Arg-NH2), the HC50 in data set [2] was >256 * µg/mL.

As to `CCCCCCCCCCCC(=O)N[C@@H](CCCNC(=N)N)C(=O)N[C@@H](CCCNC(=N)N)C(=O)NCCCC[C@H](NC(=O)[C@H](CCCNC(=N)N)NC(=O)[C@H](CCCNC(=N)N)NC(=O)CCCCCCCCCCC)C(N)=O` [Compound B3] (Lauroyl-Arg-Arg-Lys([Arg-Arg-Lauroyl])-NH2), the “MIC S. aureus ATCC 33591” value against S. aureus ATCC 33591 (human serum 10% (v/v)) turned out to be 16 µg/mL (≈ 14.1 µM). In the data set with P. aeruginosa ATCC 9027 (human serum 10% (v/v)), the “MIC P. aeruginosa ATCC 9027” value is reported as 64 µg/mL (≈ 56.4 µM). Further, in the data set with C. glabrata ATCC 15126 (human serum 10% (v/v)), the “MIC C. glabrata ATCC 15126” value was above 256 µg/mL.

Take `CCCCCCCC(=O)N[C@@H](Cc1ccccc1)C(=O)N[C@@H](CCCNC(=N)N)C(=O)N[C@@H](CCCNC(=N)N)C(=O)N[C@@H](CSSC[C@H](NC(=O)[C@H](CCCNC(=N)N)NC(=O)[C@H](CCCNC(=N)N)NC(=O)[C@H](Cc1ccccc1)NC(=O)CCCCCCC)C(N)=O)C(N)=O` [Compound C5] (I: Octanoyl-FRRC-NH2 / II: Octanoyl-FRRC-NH2; disulfide I:4-II:4): the “MIC S. aureus ATCC 33591” value in the data set with S. aureus ATCC 33591 (human serum 0% (v/v)) is 2 µg/mL (≈ 1.42 µM); against S. aureus ATCC 33591 (human serum 1% (v/v)), 64 µg/mL (≈ 45.4 µM); against S. aureus ATCC 33591 (human serum 10% (v/v)) it was 256 µg/mL (≈ 182 µM). Also, the figures for the “MIC P. aeruginosa ATCC 9027” value against P. aeruginosa ATCC 9027 (human serum 0% (v/v)), in the data set with P. aeruginosa ATCC 9027 (human serum 1% (v/v)) and with P. aeruginosa ATCC 9027 (human serum 10% (v/v)) were 8 µg/mL (≈ 5.67 µM), 128 µg/mL (≈ 90.8 µM) and above 256 µg/mL, respectively. In addition, the “MIC C. glabrata ATCC 15126” value is 8 µg/mL (≈ 5.67 µM) with C. glabrata ATCC 15126 (human serum 0% (v/v)), 128 µg/mL (≈ 90.8 µM) in the data set with C. glabrata ATCC 15126 (human serum 1% (v/v)) and above 256 µg/mL in the data set with C. glabrata ATCC 15126 (human serum 10% (v/v)).

As to `CCCCCCC(CCCC)C(=O)N[C@@H](CCCNC(=N)N)C(=O)N[C@@H](CCCNC(=N)N)C(=O)N[C@@H](CSSC[C@H](NC(=O)[C@H](CCCNC(=N)N)NC(=O)[C@H](CCCNC(=N)N)NC(=O)C(CCCC)CCCCCC)C(N)=O)C(N)=O` (some centres unmarked) [Compound C7], the “MIC S. aureus ATCC 33591” value against S. aureus ATCC 33591 (human serum 10% (v/v)) was 64 µg/mL (≈ 52.1 µM). Also, the “MIC P. aeruginosa ATCC 9027” value against P. aeruginosa ATCC 9027 (human serum 10% (v/v)) is recorded as 256 µg/mL (≈ 209 µM). The “MIC C. glabrata ATCC 15126” value against C. glabrata ATCC 15126 (human serum 10% (v/v)) came to 256 µg/mL (≈ 209 µM). Besides, the “MIC E. coli ML-35 (ATCC 43827)” value in data set [1] is listed as 64 µg/mL (≈ 52.1 µM). In data set [3], the “ti (t2), incubation time” value worked out at 68.6 min and the “ti (t1), incubation time” value is recorded as 43.9 min.

In the case of `CCCCCCCCCC(=O)N[C@@H](CCCNC(=N)N)C(=O)N[C@@H](CCCNC(=N)N)C(=O)NCCCC[C@H](NC(=O)[C@H](CCCNC(=N)N)NC(=O)[C@H](CCCNC(=N)N)NC(=O)CCCCCCCCC)C(N)=O` [Compound B2] (Decanoyl-Arg-Arg-Lys([Arg-Arg-Decanoyl])-NH2), the “MIC E. coli ML-35 (ATCC 43827)” value in data set [1] amounted to 32 µg/mL (≈ 29.7 µM).
